Tested on: Male Sprague Dawley rats
Test: Hypocalcaemic activity in rats (total serum calcium after i.v. injection)
Type: in vivo, rat
Conditions: fasted rats, blood sampled one hour after dosing, VEHICLE 10.49 + 0.6
Experimental: The hypocalcaemic activity of compounds (I) can be determined as reported for example in J. Endocrinology, 33, 469 (1965).
Male Sprague Dawley rats, about 4 weeks old, were kept under fasting conditions for 24 hours. The compounds were dissolved with BSA buffer (0.1% bovine serum albumin on 0.1M acetate buffer pH 4.5) and injected by the i.v. route into the lateral tail vein at doses of 3-10-30-100 ng/Kg. One hour after the dosing blood was sampled from the tail or neck vessels, then the serum samples obtained.
The serum was diluted with 0.1% lanthanium chloride solution and the concentration of total calcium was determined by Atomic Absorption Spectrophotometry.

In the case of CC(C)C[C@H](NC(=O)[C@H](CCCCN)NC(=O)CNC(=O)[C@H](CC(C)C)NC(=O)[C@@H](NC(=O)[C@@H]1CC#CCCC(=O)N[C@@H](CO)C(=O)N[C@@H](CC(N)=O)C(=O)N[C@@H](CC(C)C)C(=O)N[C@@H](CO)C(=O)N[C@@H]([C@@H](C)O)C(=O)N1)C(C)C)C(=O)N[C@@H](CO)C(=O)N[C@@H](CCC(N)=O)C(=O)N[C@@H](CCC(=O)O)C(=O)N[C@@H](CC(C)C)C(=O)N[C@@H](Cc1c[nH]cn1)C(=O)N[C@@H](CCCCN)C(=O)N[C@@H](CC(C)C)C(=O)N[C@@H](CCC(N)=O)C(=O)N[C@H](C(=O)N[C@@H](Cc1ccc(O)cc1)C(=O)N1CCC[C@H]1C(=O)N[C@@H](CCCNC(=N)N)C(=O)N[C@H](C(=O)N[C@@H](C)C(=O)N[C@H](C(=O)NCC(=O)N[C@@H](C)C(=O)NCC(=O)N[C@H](C(=O)N1CCC[C@H]1C(N)=O)[C@@H](C)O)C(C)C)[C@@H](C)O)[C@@H](C)O [Example 4], the “Total serum calcium; mean + S.D.” value (Dose 3 ng/kg i.v. (lateral tail vein)) is reported as 10.09±0.1 mg/100 ml, the “Total serum calcium; mean + S.D.” value (Dose 10 ng/kg i.v. (lateral tail vein)) is reported as 8.85±0.25 mg/100 ml and the “Total serum calcium; mean + S.D.” value (Dose 30 ng/kg i.v. (lateral tail vein)) is reported as 7.92±0.15 mg/100 ml. For the same compound, the “Total serum calcium; mean + S.D.” value (Dose 100 ng/kg i.v. (lateral tail vein)) was 7.66±0.18 mg/100 ml.

From patent publication EP0624163B1, “CYCLIC CALCITONIN DERIVATIVES AND METHOD FOR THEIR PRODUCTION” (Smithkline Beecham Farmaceutici S.p.A., priority 1992, dated 1998)
